The values that follow come from publication PMC3391414 (Journal of Agricultural and Food Chemistry, 2011).

“Also recorded” adds a separate entry of the source.

Series [1] addresses T1, UGT1A3 (Homo sapiens, UniProt P35503).
T1 sequence (P35503 29-534): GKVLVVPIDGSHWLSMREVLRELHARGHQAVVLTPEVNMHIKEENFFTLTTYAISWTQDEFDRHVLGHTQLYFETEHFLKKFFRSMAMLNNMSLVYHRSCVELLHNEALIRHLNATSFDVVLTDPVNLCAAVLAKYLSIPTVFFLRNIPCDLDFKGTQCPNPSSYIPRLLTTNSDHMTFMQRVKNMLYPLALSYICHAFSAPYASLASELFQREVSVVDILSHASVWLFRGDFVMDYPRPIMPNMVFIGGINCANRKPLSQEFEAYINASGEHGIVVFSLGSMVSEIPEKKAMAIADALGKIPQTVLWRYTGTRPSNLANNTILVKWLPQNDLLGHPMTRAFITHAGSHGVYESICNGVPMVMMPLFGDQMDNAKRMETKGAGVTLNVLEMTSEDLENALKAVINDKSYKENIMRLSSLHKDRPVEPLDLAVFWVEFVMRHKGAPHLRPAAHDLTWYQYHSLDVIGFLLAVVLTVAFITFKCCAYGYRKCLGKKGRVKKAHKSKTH
The experiment in a line: Glucuronidation by recombinant human UGT1A3.

For series [2], the target named is T2, UGT2B7 (Homo sapiens, UniProt P16662).
T2 sequence (P16662 24-529): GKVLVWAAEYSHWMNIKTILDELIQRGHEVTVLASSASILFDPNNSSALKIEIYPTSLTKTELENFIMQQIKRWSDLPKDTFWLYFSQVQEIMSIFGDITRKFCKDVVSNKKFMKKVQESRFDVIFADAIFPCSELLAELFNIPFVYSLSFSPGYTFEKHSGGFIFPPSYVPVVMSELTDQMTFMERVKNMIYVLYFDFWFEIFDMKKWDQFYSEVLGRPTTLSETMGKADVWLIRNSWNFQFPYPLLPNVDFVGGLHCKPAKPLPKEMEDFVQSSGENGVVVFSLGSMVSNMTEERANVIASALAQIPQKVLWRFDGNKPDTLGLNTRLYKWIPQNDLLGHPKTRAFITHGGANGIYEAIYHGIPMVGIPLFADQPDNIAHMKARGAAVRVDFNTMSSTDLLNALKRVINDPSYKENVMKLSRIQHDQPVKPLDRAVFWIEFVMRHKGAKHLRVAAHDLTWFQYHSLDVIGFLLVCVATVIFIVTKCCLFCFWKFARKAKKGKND
As to the kind of experiment: Glucuronidation by recombinant human UGT2B7. As to conditions: UGT2B7, substrate 10 μM.

Series [3] addresses T3, UGT1A1 (Homo sapiens, UniProt P22309).
T3 sequence (P22309 26-533): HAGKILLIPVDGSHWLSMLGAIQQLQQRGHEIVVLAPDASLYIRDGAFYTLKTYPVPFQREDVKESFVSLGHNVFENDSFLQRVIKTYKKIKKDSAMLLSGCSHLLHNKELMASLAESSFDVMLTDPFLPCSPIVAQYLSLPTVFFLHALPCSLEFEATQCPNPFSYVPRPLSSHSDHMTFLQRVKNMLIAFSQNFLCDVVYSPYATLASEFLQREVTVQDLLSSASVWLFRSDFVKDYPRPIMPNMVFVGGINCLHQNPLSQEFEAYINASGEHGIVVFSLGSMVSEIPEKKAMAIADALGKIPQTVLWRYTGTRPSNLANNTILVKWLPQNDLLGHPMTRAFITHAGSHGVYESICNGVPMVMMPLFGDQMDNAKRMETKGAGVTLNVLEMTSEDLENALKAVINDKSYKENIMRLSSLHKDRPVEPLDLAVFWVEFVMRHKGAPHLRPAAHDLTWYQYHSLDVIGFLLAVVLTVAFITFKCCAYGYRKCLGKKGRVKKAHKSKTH
The experiment in a line: Glucuronidation by recombinant human UGT1A1.

The target of series [4] is T4, UGT1A10 (Homo sapiens, UniProt Q9HAW8).
T4 sequence (Q9HAW8 26-530): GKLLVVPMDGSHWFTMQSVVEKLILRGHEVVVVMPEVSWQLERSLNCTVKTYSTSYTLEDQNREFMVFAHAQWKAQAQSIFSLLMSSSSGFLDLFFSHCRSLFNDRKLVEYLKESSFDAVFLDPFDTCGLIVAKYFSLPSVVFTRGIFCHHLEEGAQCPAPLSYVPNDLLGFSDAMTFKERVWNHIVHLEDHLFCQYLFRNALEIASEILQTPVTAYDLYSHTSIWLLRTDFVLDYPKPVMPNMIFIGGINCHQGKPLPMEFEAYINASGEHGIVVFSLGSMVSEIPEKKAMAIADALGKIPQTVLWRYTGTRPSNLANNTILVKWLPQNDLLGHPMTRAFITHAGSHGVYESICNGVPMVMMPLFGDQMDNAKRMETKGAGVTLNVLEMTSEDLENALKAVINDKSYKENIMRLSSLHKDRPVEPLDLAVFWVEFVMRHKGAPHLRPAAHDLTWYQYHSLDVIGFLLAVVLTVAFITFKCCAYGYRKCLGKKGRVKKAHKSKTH
As to the kind of experiment: Glucuronidation by recombinant human UGT1A10. As to conditions: UGT1A10, substrate 10 μM.

Series [5] concerns the target T5, UGT1A9 (Homo sapiens, UniProt O60656).
T5 sequence (O60656 26-530): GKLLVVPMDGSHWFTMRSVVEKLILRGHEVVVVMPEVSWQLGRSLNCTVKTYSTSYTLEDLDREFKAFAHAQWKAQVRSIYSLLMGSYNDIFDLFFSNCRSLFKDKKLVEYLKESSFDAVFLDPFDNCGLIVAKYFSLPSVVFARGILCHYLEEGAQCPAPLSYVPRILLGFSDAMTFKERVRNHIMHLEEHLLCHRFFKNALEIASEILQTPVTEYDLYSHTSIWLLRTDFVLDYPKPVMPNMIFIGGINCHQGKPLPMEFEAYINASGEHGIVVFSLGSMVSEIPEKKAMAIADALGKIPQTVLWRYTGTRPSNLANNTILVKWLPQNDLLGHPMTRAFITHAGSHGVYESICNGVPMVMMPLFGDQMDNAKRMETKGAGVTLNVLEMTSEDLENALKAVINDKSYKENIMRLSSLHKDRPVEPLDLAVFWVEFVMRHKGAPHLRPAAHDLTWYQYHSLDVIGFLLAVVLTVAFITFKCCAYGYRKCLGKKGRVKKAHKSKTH
The experiment in a line: Glucuronidation by recombinant human UGT1A9.

Series [6] deals with T6, UGT1A6 (Homo sapiens, UniProt P19224).
T6 sequence (P19224 27-532): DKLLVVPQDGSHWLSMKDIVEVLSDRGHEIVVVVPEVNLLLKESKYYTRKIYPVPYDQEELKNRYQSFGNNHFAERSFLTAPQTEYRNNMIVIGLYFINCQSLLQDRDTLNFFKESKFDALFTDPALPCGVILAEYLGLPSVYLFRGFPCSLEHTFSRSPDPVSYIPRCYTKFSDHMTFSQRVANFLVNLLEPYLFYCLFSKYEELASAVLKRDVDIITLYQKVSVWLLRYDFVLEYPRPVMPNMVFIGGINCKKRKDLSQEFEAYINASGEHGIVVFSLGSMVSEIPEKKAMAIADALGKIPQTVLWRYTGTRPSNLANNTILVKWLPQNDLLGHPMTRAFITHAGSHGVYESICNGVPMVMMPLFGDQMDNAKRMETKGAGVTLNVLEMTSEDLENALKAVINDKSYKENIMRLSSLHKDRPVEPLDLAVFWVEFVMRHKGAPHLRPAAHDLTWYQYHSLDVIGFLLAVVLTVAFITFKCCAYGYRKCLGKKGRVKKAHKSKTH
As to the kind of experiment: Glucuronidation by recombinant human UGT1A6. Particulars: UGT1A6, substrate 10 μM.

For series [7], the target named is T7, UGT1A8 (Homo sapiens, UniProt Q9HAW9).
T7 sequence (Q9HAW9 26-530): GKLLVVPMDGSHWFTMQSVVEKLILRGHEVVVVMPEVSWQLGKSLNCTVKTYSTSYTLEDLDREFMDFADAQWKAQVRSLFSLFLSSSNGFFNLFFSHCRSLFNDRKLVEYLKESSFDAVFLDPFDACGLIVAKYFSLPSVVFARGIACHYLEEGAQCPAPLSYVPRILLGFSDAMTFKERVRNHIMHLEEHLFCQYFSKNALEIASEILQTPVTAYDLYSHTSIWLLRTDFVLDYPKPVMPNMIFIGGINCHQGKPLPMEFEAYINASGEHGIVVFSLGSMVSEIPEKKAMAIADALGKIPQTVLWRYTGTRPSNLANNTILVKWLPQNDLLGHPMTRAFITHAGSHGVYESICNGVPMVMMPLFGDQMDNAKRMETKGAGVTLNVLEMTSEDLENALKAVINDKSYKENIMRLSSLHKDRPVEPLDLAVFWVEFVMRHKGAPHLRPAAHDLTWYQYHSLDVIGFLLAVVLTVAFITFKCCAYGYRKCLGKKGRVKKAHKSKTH
The experiment in a line: Glucuronidation by recombinant human UGT1A8. Particulars: UGT1A8, substrate 35 μM.

For series [8] the following is noted: cited from earlier work.
For series [9] the following is noted: cited from earlier work. The source holds these as a separate data set.

In the case of `O=c1c(O)c(-c2ccc(O)cc2)oc2cc(O)ccc12` [7,4'DHFnol, 3,7,4’-trihydroxyflavone], the “Degree of regiospecificity (major glucuronide in bracket)” value (shortened to “Degree … (major glucuronide in bracket)”) in series [1] (UGT1A3, substrate 2.5 μM) is given as “Dominant (7-O)”; in [1] (UGT1A3, substrate 10 μM) it was “Weak (7-O)”; in series [1] (UGT1A3, substrate 10 μM, listed as 7,4’DHFnol), “weak regiospecific preference for 7-O over 3-O position”; in series [3] (UGT1A1, substrate 2.5 μM) it was “No (3-O, 7-O)”; in series [3] (UGT1A1, substrate 10 μM), “No (3-O, 7-O)”; in series [3] (UGT1A1, substrate 10 μM, listed as 7,4’DHFnol), “no regiospecific preference for any position”. The “Degree … (major glucuronide in bracket)” value was “Moderate (3-O)” in series [5] (UGT1A9, substrate 2.5 μM); “Moderate (3-O)” in series [5] (UGT1A9, substrate 10 μM); “moderate” in series [5] (UGT1A9, substrate 10 μM, listed as 7,4’DHFnol). In addition, the Hydroxyl positions glucuronidated result in [1] (UGT1A3, substrate 10 μM) was “glucuronidated hydroxyl groups at C-3 and C-7 positions only”; in [2], “glucuronidated all the three hydroxyl groups”; in series [3] (UGT1A1, substrate 10 μM), “glucuronidated all the three hydroxyl groups”; in [4] it was “glucuronidated all the three hydroxyl groups”; in series [5] (UGT1A9, substrate 10 μM), “glucuronidated hydroxyl groups at C-3 and C-7 positions only”; in series [6], “no position was glucuronidated”.
For the compound `O=c1c(O)c(-c2ccccc2)oc2cc(O)ccc12` [7HFnol, 3,7-dihydroxyflavone], the “Degree … (major glucuronide in bracket)” value in [1] (UGT1A3, substrate 2.5 μM) is reported as “Moderate (7-O)”; in series [1] (UGT1A3, substrate 10 μM), “dominantly regiospecific by glucuronidating hydroxyl group only at C-7 position; also recorded: Dominant (7-O)”; in series [3] (UGT1A1, substrate 2.5 μM), “weak regiospecificity for 7-O position; also recorded: weakly preferred the glucuronidation of 7-O position”; in [3] (UGT1A1, substrate 10 μM) it was “no preference; also recorded: did not show any regiospecific preference; also recorded: no regiospecificity; also recorded: No (3-O,7-O)”; in series [5] (UGT1A9, substrate 2.5 μM) it was “moderate regiospecificity for 3-O position”; in [5] (UGT1A9, substrate 10 μM), “moderate regiospecificity for 3-O position”. Further, the “Degree of regiospecificity (3-O vs 7-O)” value in series [3] (UGT1A1, substrate 35 μM) is “no regiospecificity”; in series [5] (UGT1A9, substrate 35 μM), “no regiospecificity”; in series [7], “moderate regiospecificity for 3-O position”. Moreover, the Hydroxyl positions glucuronidated entry in [6] is recorded as “no position was glucuronidated”.
`O=c1c(-c2ccc(O)cc2)coc2cc(O)cc(O)c12` [genistein]: the “Cmax of 7-O-glucuronide relative to 4’-O-glucuronide” value in [8] (intravenous administration of genistein) was “four times higher”. Also, in [8] (per-oral administration of genistein), the “Cmax of 7-O-G relative to 4’-O-glucuronide” value was 1.85 times.
Take `O=C(O)[C@H]1O[C@@H](Oc2cc(O)c3c(=O)c(O)c(-c4ccc(O)c(O)c4)oc3c2)[C@H](O)[C@@H](O)[C@@H]1O` [quercetin,7-O-G]: the Antioxidative property entry in series [9] is given as “stronger antioxidative property than quercetin,3-O-G”.
